Experimental data reported in patent publication US20230136824A1, “N-N-[…] (DMT) AND DMT ANALOG COMPOSITIONS, METHODS OF MAKING, AND METHODS OF USE THEREOF” (ATAI Life Sciences AG, priority 2021, published 2023).
Values after ≈ are worked out from the molar mass of the structure shown.

Tests used:
[1] = Physicochemical constants of DMT (log P, pKa, glass transition temperature); conditions: amorphous N,N-DMT
Description: DMT free base is a lipophilic molecule (log P−2.573) with a small backbone (Mol wt. 188.27 g/mol).
The pH of the film plays a very important role in balancing its ionized vs unionized form at the site. In the present invention microenvironmental pH is maintained to achieve balance between ionized and unionized form and thus the permeation across the mucosa.

[2] = Excipient compatibility of DMT binary mixtures at 50° C./75% RH (HPLC impurity levels); type: physicochemical
Method: Further, several excipients for formulating transmucosal films with desired properties have been analyzed for compatibility with DMT at 50° C./75% RH utilizing HPLC method to detect impurity levels.

[3] = Solubility of buccal film and neat API in Phosphate buffer saline pH 6.8; type: physicochemical
[4] = Ex-vivo permeation through porcine buccal mucosa (Franz diffusion cell); type: in vitro ADME; conditions: 180 minutes, phosphate buffered solution 0.01M pH=7
Method: Further, permeability of DMT through prepared films were evaluated using ex-vivo permeation study i.e., using porcine buccal mucosa as presented below. Ex-vivo permeation is well studied using Franz diffusion cell or Using chambers utilizing animal mucosa (e.g., Pig or sheep buccal mucosa) or by using commercially available synthetic membranes (e.g., Permeapad®). The Franz diffusion cell consists of two compartments; one is the donor compartment, the other is the receptor compartment of 18 mL capacity and having 0.785 cm^2 effective diffusion area. The temperature is maintained at 37° C. by water jacket. […]
Further, all prepared films are evaluated for the permeability through pig buccal mucosa and compared against the permeability of API dispersion in PBS pH 7.0 as presented in FIG. 6. In one aspect, the present invention involves a DMT polymeric film that releases about 5% or less DMT in 60 minutes, about 15% DMT or less in 180 minutes when measured through pig mucosa in phosphate buffered solution 0.01M pH=7, as shown in FIG. 6.
Further, permeability of DMT through prepared films were evaluated using ex-vivo permeation study i.e., porcine buccal mucosa or Permeapad® as presented below.

[5] = DMT solubility in various solvents (super saturated mixture, HPLC); type: physicochemical
Description: Solubility studies of DMT have been carried out in various solvents by preparing super saturated mixture and analyzed using HPLC.
This warrants a strong need for improvement solubility of DMT API in the film formulation for better bioavailability.

[6] = pH of the donor chamber media in permeation study; type: physicochemical; conditions: PBS pH 7.0
[7] = Forced degradation study of DMT under stress conditions (HPLC); type: physicochemical; conditions: for % Assay: exposure overnight
Method: A forced degradation study of DMT was performed under different stress conditions and samples are analyzed using HPLC.
It is important to incorporate antioxidant(s) in the formulation to prevent oxidation of DMT during the shelf life and to form stable films.

SMILES: CN(C)CCc1c[nH]c2ccccc12 [DMT, N, N-Dimethyltryptamine]
- Glass transition temperature [1]: −18 °C
- No. of Impurities [2]: 6
- Total Impurities % [2]: 2.17%
- solubility [3]: 2.3 mg/mL (≈ 12.2 mM)
- DMT released through pig mucosa [4]: about 33%
- solubility ([5]; Saliva Buffer (pH 6.8)): 2.3 mg/mL (≈ 12.2 mM)
- solubility ([5]; acetone): > 126 mg/mL
- solubility ([5]; acetonitrile): > 94 mg/mL
- solubility ([5]; ethanol): > 98 mg/mL
- solubility ([5]; isopropyl alcohol water): > 98 mg/mL
- solubility ([5]; methanol): > 98 mg/mL
- solubility ([5]; methanol:water (50:50)): 26 mg/mL (≈ 138 mM)
- solubility ([5]; methanol:water (70:30)): > 50 mg/mL
- solubility ([5]; methyl isobutyl ketone): > 90 mg/mL
- solubility ([5]; p-dioxane): > 104 mg/mL
- solubility ([5]; tetrahydrofuran): > 106 mg/mL
- solubility ([5]; water): < 1 mg/mL
- pH of the donor chamber media [6]: 9.5
- Oxidation upon force degradation study [7]: highly prone to oxidation
- % Assay ([7]; 0.1N HCl): 99.7%
- % Assay ([7]; 0.1N NaOH): 99.4%
- % Assay ([7]; 3% peroxide): 26.6%
- % Assay ([7]; 70° C.): 98.5%
